The text below walks through data of ChEMBL document CHEMBL3739304, “Non-nucleoside anti-HBV agents: advances in structural optimization and mechanism of action investigations” (Medchemcomm, 2015).

The nature of series [1]: Cytotoxicity against human HuH7 cells. Type of series: cell-based, Huh-7.
For series [2], the system named is Hepatitis B virus. Description: Inhibition of HBV in Huh7 cells by ELISA. Type of series: functional, organism-based. The note with it: Huh-7.
Series [3] relates to Hepatitis B virus. Description: Inhibition of HBV DNA replication in HepAD38 cells. The series is classed as functional, organism-based.
The nature of series [4]: Cytotoxicity against human HepAD38 cells. The series is classed as cell-based. Conditions: read-out: TC50 (the source's name).
Series [5] in a line: Selectivity index, ratio of cytotoxicity against human HepG2.2.15 cells to IC50 for HBV DNA replication in HepG2.2.15 cells. The series is classed as toxicity, cell-based. The note with it: read-out: Selectivity Index.
For series [6], the system named is Hepatitis B virus. The series can be described thus: Inhibition of HBV DNA replication in HepG2.2.15 cells. Type of series: functional, organism-based.
Series [7] can be described thus: Cytotoxicity against human HepDES19 cells after 48 hrs by MTT assay. Type of series: cell-based. In general terms: Tetrazolium dyes change colour on reduction, which living cells bring about.
Series [8] is described as follows: Cytotoxicity against mouse AML-12 cells after 48 hrs by MTT assay. Type of series: cell-based.
For series [9], the system named is Hepatitis B virus. Description: Inhibition of HBV DNA replication in AML-12 cells after 48 hrs by dot blot analysis. The note with it: AML12, 48 h. Type of series: functional, organism-based.
The test system of series [10] is Hepatitis B virus. The series can be described thus: Inhibition of HBV DNA replication in HepDES19 cells after 48 hrs by dot blot analysis. Type of series: functional, organism-based. The note with it: HepDES19, 48 h.
For series [11], the system named is Hepatitis B virus. Description: Inhibition of HBV DNA replication. The series is classed as functional, organism-based.
In series [12] the test system is Hepatitis B virus. Description: Inhibition of HBV antigen secretion. Type of series: functional, organism-based.
Series [13] deals with Hepatitis B virus. Description: Inhibition of HBV virions secretion. The series is classed as functional, organism-based.
Series [14] in a line: Cytotoxicity against human HepG2.2.15 cells assessed as cell viability. The series is classed as cell-based, HepG2 2.2.15. Conditions: read-out: TC50 (the source's name).
Series [15] can be described thus: Cytotoxicity against human HepDE19 cells after 7 days by MTT assay. The series is classed as cell-based.
In series [16] the test system is Hepatitis B virus. Description: Inhibition of HBV antigen secretion in HepDE19 cell after 7 days by ELISA. The series is classed as functional, organism-based. The note with it: HepDE19, 168 h.
Series [17] can be described thus: Ratio of CC50 for human HepG2.2.15 cells to IC50 for HBV DNA replication in HepG2.2.15 cells. On the set-up: species or system HepG2 2.2.15.
The test system of series [18] is Hepatitis B virus. Description: Inhibition of HBV antigen secretion in HepG2.2.15 cells. Type of series: functional, organism-based.
Series [19] is described as follows: Selectivity index, ratio of cytotoxicity against human HepG2.2.15 cells to IC50 for HBV antigen secretion in HepG2.2.15 cells. The note with it: read-out: Selectivity Index. The series is classed as toxicity, cell-based.
In series [20] the test system is Hepatitis B virus. The series can be described thus: Inhibition of HBV DNA replication in HepG2 cells by southern blot analysis. The series is classed as functional, organism-based.

SMILES strings stand for the structures.

In the case of `O=C1OC(OCc2ccccc2)=N/C1=C\c1ccccc1`, in [1], the CC50 is over 50 µM. Moreover, the EC50 in the series with Hepatitis B virus [2] came out at 5.4 µM.
On to `COc1ccccc1/C(Br)=C(\NC(=O)c1ccc([N+](=O)[O-])cc1)C(=O)N1CCCCC1`, for which, in the series on Hepatitis B virus [3], a half-maximal response (EC50) required 0.13 µM and the EC90 is 0.92 µM. For the same molecule, in series [4], the CC50 is over 61 µM.
Consider `Cc1cc(C)n2[nH]c(=S)nc2n1`, for which the CC50 in [1] was over 50 µM. Moreover, in the series on Hepatitis B virus [2], the EC50 was 0.12 µM.
`CCOC(=O)c1cc2cc(OC)c(O)c(CN3CCCC3)c2nc1CSc1ccccc1`: the selectivity ratio in [5] was 2.8. Besides, in the series on Hepatitis B virus [6], the IC50 was 36.8 µM.
Take `CCC(C)NS(=O)(=O)c1ccc(F)c(C(=O)NCc2ccc(F)c(F)c2)c1` (stereo unspecified): the CC50 at 48 h in [7] and in series [8] was over 50 µM each time. In addition, the EC50 with Hepatitis B virus [9] worked out at 0.3 µM; in the series with Hepatitis B virus [10], 0.1 µM.
Turning to `CC(C)Cc1sc(-c2nccs2)nc1C(=O)NCc1ccc(F)cc1`, in the series with Hepatitis B virus [11], the IC50 was found to be 0.14 µM. That is a sub-micromolar value.
Regarding `Clc1cc2nc(N3CCN(c4ccccn4)CC3)[nH]c2cc1Cl`, the half-maximal effective concentration (EC50) in the series on Hepatitis B virus [12] was 1.5 µM; in the series on Hepatitis B virus [13] it was 0.6 µM.
In the series on Hepatitis B virus [6], `CCOC(=O)C1=C(C)NC(c2ncccc2F)=NC1c1ccc(F)cc1Cl` (stereo unspecified) gave an IC50 of 0.15 µM. In addition, the CC50 in [14] is 50 µM.
`O=C(NCc1ccccc1)c1ccc(Cl)c(S(=O)(=O)N2CCCCCC2)c1`: the CC50 at 48 h in [7] and in series [8] was over 50 µM in each case. Further, the EC50 in the series on Hepatitis B virus [9] was found to be 1.7 µM; in the series on Hepatitis B virus [10], 1.6 µM.
`Cc1nc2cc(NC(=O)c3ccc(S(=O)(=O)N(C)Cc4ccccc4)cc3)ccc2s1` registered a CC50 at 168 h in series [15] of over 2.57 µM. Further, the EC50 in the series on Hepatitis B virus [16] was found to be 0.35 µM.
Take `O=C(CN(c1cc(C(F)(F)F)ccc1Cl)S(=O)(=O)c1ccccc1)NCc1ccncc1`: the CC50 at 168 h in [15] is over 50 µM. The molecule further displayed a 50% effective concentration (EC50) in the series on Hepatitis B virus [16] of 4.55 µM.
Regarding `O=C(NCc1ccc(F)c(F)c1)c1cc(S(=O)(=O)NC2CCCC2)ccc1F`, the CC50 at 48 h in series [7] and in series [8] was over 50 µM throughout. Also, the EC50 amounted to 0.39 µM in the series on Hepatitis B virus [9] and 0.14 µM in the series with Hepatitis B virus [10].
As for `CN(C)C(=O)c1ccc2c(c1)nc(-c1nccs1)n2C`, in series [17], the “Ratio CC50/IC50” value was over 90. In addition, half-maximal inhibition in the series with Hepatitis B virus [6] (IC50) was put at 1.1 µM.
For `CCOC(=O)C1=C(C)NC(c2nccs2)=N[C@H]1c1ccc(F)cc1Cl`, the IC50 in the series on Hepatitis B virus [6] worked out at 0.03 µM. Further, in series [14], the CC50 amounted to 25 µM.
For the molecule `COc1cc2nc3c(cc2c(Cn2ccnc2C)c1O)CSc1cc(F)ccc1-3`, the selectivity ratio in series [5] amounted to 60.3. In the series with Hepatitis B virus [6], this molecule returned an IC50 of 1.7 µM.
On to `CCOC(=O)c1cc2cc(OC)c(O)c(CN3C=NCC3)c2nc1C[S+]([O-])c1ccc(F)c(F)c1` (stereo unspecified), for which the selectivity ratio is 61.6 in series [5] and 11.3 in series [19]. Moreover, the IC50 worked out at 14.2 µM with Hepatitis B virus [18] and 2.6 µM in the series on Hepatitis B virus [6].
`CCOC(=O)C1=C(CN2CCOCC2)NC(c2nccs2)=NC1c1ccc(F)cc1Br` (stereo unspecified) showed an IC50 in the series with Hepatitis B virus [20] of 0.012 µM.
For the molecule `CCCCC/N=C(\c1ccc(=O)n(CCCCC)c1)c1ccc(OC)cc1O`, the half-maximal inhibitory concentration (IC50) with Hepatitis B virus [11] worked out at 30 µM; in the series with Hepatitis B virus [12], 5 µM.
As to `O=C(N/C(C(=O)N1CCCCC1)=C(/Cl)c1ccccc1)c1ccccc1`, in the series with Hepatitis B virus [3], a half-maximal response (EC50) required 1.2 µM and it took 13 µM to reach the 90% level (EC90). Moreover, the CC50 in series [4] was over 81 µM.

Broadly, the EC50 is the midpoint of the concentration-response curve. Low values mean an effect from little substance, high ones a need for much substance. As usually defined, the EC90 is the concentration needed for an effect of 90%. A lower EC90 goes with greater potency. One may read the IC50 as the midpoint of a concentration-inhibition curve. The low end stands for greater potency, the high end for weaker potency.
